In PMC12401824, “Studies on the impact of modifications at the Gln-Trp site in RM2-based GRPR ligands” (EJNMMI Research, 2025):
Like-named read-outs stand apart in the source and are kept apart here. Starred links: 1 amine or outer side, 2 acyl side, 3 side chain; linkers in the order of their positions; H or OH if unused. Non-standard residues stand in square brackets, D forms with d. Residues, ends and D or L forms follow the SMILES beside them. *: point of attachment. X2 = O=C(O)CN1CCN(CC(=O)O)CCN(CC(=O)NCc2ccc(NC(=O)COCC(=O)*)cc2)CCN(CC(=O)O)CC1; DOTA = O=C(O)CN1CCN(CC(=O)O)CCN(CC(=O)*)CCN(CC(=O)O)CC1; NODAGA = O=C(O)CN1CCN(CC(=O)O)CCN(C(CCC(=O)*)C(=O)O)CC1; NOTA = O=C(O)CN1CCN(CC(=O)O)CCN(CC(=O)*)CC1; Sta = CC(C)C[C@H](N)[C@@H](O)CC(=O)O; Bta = N[C@@H](Cc1csc2ccccc12)C(=O)O; X1 = O=C(CN1CCC(N[*:1])CC1)[*:2]; NHCH(iBu)2 = CC(C)CC(CC(C)C)N*; hSer = N[C@@H](CCO)C(=O)O

How the values were obtained:
[1] = Metabolic stability in vitro in human serum (37 °C, 72 ± 2 h); assay type: in vitro ADME; conditions: ^177Lu-labeled NeoB and UL analogs, n = 3
Description: Metabolic stability in vitro was determined applying a procedure published by Linder et al. that was slightly modified. Immediately after labeling, human serum (200 µL) was added to the labeling solution (~ 30 µL) and the mixture was incubated at 37 °C for 72 ± 2 h. Proteins were precipitated by treatment with ice-cold ethanol (150 µL) and ice-cold acetonitrile (450 µL), followed by centrifugation at 13,000 rpm for 5 min. The supernatants were decanted and further analyzed using radio RP-HPLC.

GRPR = target: T1, GRPR (Homo sapiens, UniProt P30550); test: GRPR affinity (IC50), competitive binding on PC-3 cells vs [3-[^125I]I-D-Tyr^6]MJ9; conditions: 2 h, rt
T1 construct: host or cells: PC-3 cells
Description: IC50 values of all compounds were determined according to a previously published procedure. Detailed information on culturing PC-3 cells and on the execution of IC50 studies is provided in the supplementary materials. In brief, competitive binding studies were performed in triplicate on PC-3 cells (1.5 × 10^5 cells in 1 mL/well) after incubation at room temperature for 2 h, using [3-[^125I]I-D-Tyr^6]MJ9 (0.2 nM/well) as radiolabeled reference (n = 3).
After removal of the culture medium, the cells were washed once with 500 µL of HBSS (Hank’s balanced salt solution, Biochrom GmbH, Berlin, Germany, with addition of 1% bovine serum albumin (BSA, v/v)) and left in 200 µL HBSS (1% BSA, v/v) for 9 min at rt for equilibration. Next, 25 µL per well of solutions, containing either HBSS (1% BSA, v/v) as control or the respective compound in increasing concentration (10^-10 M – 10^-4 M in HBSS (1% BSA, v/v)), were added with subsequent addition of 25 µL of [3-[^125I]I-D-Tyr^6]MJ9 (2.0 nm) in HBSS (1% BSA, v/v).
All experiments were performed in triplicate for each concentration. After 2 h incubation at rt, the experiment was terminated by removal of the medium and consecutive rinsing with 300 µL of HBSS (1% BSA, v/v). The media of both steps were combined in one fraction and represent the amount of free radiolabeled reference. Afterwards, the cells were lysed with 300 µL of 1 M NaOH for at least 15 min and united with the 300 µL NaOH of the following washing step. Quantification of bound and free radiolabeled reference was accomplished in a γ-counter. IC50 determination for each conjugate was repeated twice.

[2] = Cu-complexed, n = 3, read-out: IC50 (nM), Cu-labeled
[3] = Ga-complexed, n = 3, read-out: IC50 (nM), Ga-labeled

T1 sequence (P30550 whole entry): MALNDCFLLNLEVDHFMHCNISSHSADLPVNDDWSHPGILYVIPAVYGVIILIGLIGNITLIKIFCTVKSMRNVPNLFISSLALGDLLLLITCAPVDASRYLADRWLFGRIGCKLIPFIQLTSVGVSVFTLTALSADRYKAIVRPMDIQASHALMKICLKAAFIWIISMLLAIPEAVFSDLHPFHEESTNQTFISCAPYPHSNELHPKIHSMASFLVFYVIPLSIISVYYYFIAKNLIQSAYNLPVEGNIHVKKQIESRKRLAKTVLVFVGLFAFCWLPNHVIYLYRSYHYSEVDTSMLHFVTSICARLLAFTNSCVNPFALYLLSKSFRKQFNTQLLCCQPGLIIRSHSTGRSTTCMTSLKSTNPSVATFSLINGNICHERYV

| Compound | IC50 (GRPR; [2]) [nM] | IC50 (GRPR; [3]) [nM] | Percentage of intact compound in human serum [1] [%] |
| --- | --- | --- | --- |
| CC(C)CC(CC(C)C)NC(=O)[C@H](Cc1c[nH]cn1)NC(=O)CNC(=O)[C@@H](NC(=O)[C@H](C)NC(=O)[C@H](Cc1c[nH]c2ccccc12)NC(=O)[C@H](CCO)NC(=O)[C@@H](Cc1ccccc1)NC(=O)COCC(=O)Nc1ccc(CNC(=O)CN2CCN(CC(=O)O)CCN(CC(=O)O)CCN(CC(=O)O)CC2)cc1)C(C)C [[Hse^7]NeoB] (X2-[dF][hSer]WAVGH-{NHCH(iBu)2}; N-terminus and C-terminus assumed) |  |  | 57.4 ± 2.1 |
| CC(C)CC(CC(C)C)NC(=O)[C@H](Cc1c[nH]cn1)NC(=O)CNC(=O)[C@@H](NC(=O)[C@H](C)NC(=O)[C@H](Cc1csc2ccccc12)NC(=O)[C@H](CCC(N)=O)NC(=O)[C@@H](Cc1ccccc1)NC(=O)COCC(=O)Nc1ccc(CNC(=O)CN2CCN(CC(=O)O)CCN(CC(=O)O)CCN(CC(=O)O)CC2)cc1)C(C)C [[Bta^8]NeoB] (X2-[dF]Q[Bta]AVGH-{NHCH(iBu)2}; N-terminus and C-terminus assumed) |  |  | 36.2 ± 2.6 |
| CC(C)CC(CC(C)C)NC(=O)[C@H](Cc1cnc[nH]1)NC(=O)CNC(=O)[C@@H](NC(=O)[C@H](C)NC(=O)[C@H](Cc1c[nH]c2ccccc12)NC(=O)[C@H](CCC(N)=O)NC(=O)[C@@H](Cc1ccccc1)NC(=O)COCC(=O)Nc1ccc(CNC(=O)CN2CCN(CC(=O)O)CCN(CC(=O)O)CCN(CC(=O)O)CC2)cc1)C(C)C [NeoB, reference compound] |  |  | 60.8 ± 1.2 |
| CC(C)CC(CC(C)C)NC(=O)[C@H](Cc1c[nH]cn1)NC(=O)CNC(=O)[C@@H](NC(=O)[C@H](C)NC(=O)[C@](C)(Cc1c[nH]c2ccccc12)NC(=O)[C@H](CCC(N)=O)NC(=O)[C@@H](Cc1ccccc1)NC(=O)COCC(=O)Nc1ccc(CNC(=O)CN2CCN(CC(=O)O)CCN(CC(=O)O)CCN(CC(=O)O)CC2)cc1)C(C)C [[α-Me-Trp^8]NeoB] |  |  | 70.7 ± 2.8 |

Now from value to compound, other results behind:

| IC50 (GRPR; [2]) [nM] | IC50 (GRPR; [3]) [nM] | Compound | Percentage of intact compound in human serum [1] [%] |
| --- | --- | --- | --- |
| 4.2 ± 0.6 | 2.3 ± 0.1 | CC(C)C[C@H](NC(=O)C[C@H](O)[C@H](CC(C)C)NC(=O)[C@H](Cc1c[nH]cn1)NC(=O)CNC(=O)[C@@H](NC(=O)[C@H](C)NC(=O)[C@H](Cc1csc2ccccc12)NC(=O)[C@H](CCC(N)=O)NC(=O)[C@@H](Cc1ccccc1)NC(=O)CN1CCC(NC(=O)CN2CCN(CC(=O)O)CCN(CC(=O)O)CCN(CC(=O)O)CC2)CC1)C(C)C)C(N)=O [[Bta^8]RM2] ({DOTA}-[X1][dF]Q[Bta]AVGH[Sta]L-NH2) |  |
| 33 ± 2.7 | 7.7 ± 0.7 | CC(C)C[C@H](NC(=O)C[C@H](O)[C@H](CC(C)C)NC(=O)[C@H](Cc1c[nH]cn1)NC(=O)CNC(=O)[C@@H](NC(=O)[C@H](C)NC(=O)[C@H](Cc1c[nH]c2ccccc12)NC(=O)[C@H](CCO)NC(=O)[C@@H](Cc1ccccc1)NC(=O)CN1CCC(NC(=O)CN2CCN(CC(=O)O)CCN(CC(=O)O)CCN(CC(=O)O)CC2)CC1)C(C)C)C(N)=O [[Hse^7]RM2] ({DOTA}-[X1][dF][hSer]WAVGH[Sta]L-NH2) |  |
| 14.2 ± 2.7 | 8.4 ± 1 | CC(C)C[C@H](NC(=O)C[C@H](O)[C@H](CC(C)C)NC(=O)[C@H](Cc1c[nH]cn1)NC(=O)CNC(=O)[C@@H](NC(=O)[C@H](C)NC(=O)[C@H](Cc1c[nH]c2ccccc12)NC(=O)[C@H](CCO)NC(=O)[C@@H](Cc1ccccc1)NC(=O)CN1CCC(NC(=O)CN2CCN(CC(=O)O)CCN(CC(=O)O)CC2)CC1)C(C)C)C(N)=O [NOTA-[des-DOTA, Hse^7]RM2] ({NOTA}-[X1][dF][hSer]WAVGH[Sta]L-NH2) |  |
| 11.8 ± 2.1 | 7.2 ± 0.7 | CC(C)C[C@H](NC(=O)C[C@H](O)[C@H](CC(C)C)NC(=O)[C@H](Cc1c[nH]cn1)NC(=O)CNC(=O)[C@@H](NC(=O)[C@H](C)NC(=O)[C@H](Cc1c[nH]c2ccccc12)NC(=O)[C@H](CCO)NC(=O)[C@@H](Cc1ccccc1)NC(=O)CN1CCC(NC(=O)CCC(C(=O)O)N2CCN(CC(=O)O)CCN(CC(=O)O)CC2)CC1)C(C)C)C(N)=O (stereo partly drawn) [NODAGA-[des-DOTA, Hse^7]RM2] ({NODAGA}-[X1][dF][hSer]WAVGH[Sta]L-NH2) |  |
| 2.8 ± 0.2 | 1.8 | CC(C)C[C@H](NC(=O)C[C@H](O)[C@H](CC(C)C)NC(=O)[C@H](Cc1c[nH]cn1)NC(=O)CNC(=O)[C@@H](NC(=O)[C@H](C)NC(=O)[C@H](Cc1csc2ccccc12)NC(=O)[C@H](CCC(N)=O)NC(=O)[C@@H](Cc1ccccc1)NC(=O)CN1CCC(NC(=O)CN2CCN(CC(=O)O)CCN(CC(=O)O)CC2)CC1)C(C)C)C(N)=O [NOTA-[des-DOTA, Bta^8]RM2] ({NOTA}-[X1][dF]Q[Bta]AVGH[Sta]L-NH2) |  |
